Key:
[1] = system: human Jurkat T cells; test: In vitro mRNA transfection efficiency (eGFP fluorescence), flow cytometry; format: cell-based; settings: 44-hour incubation; for transfection efficiency: 100 ng mRNA per well, eGFP fluorescence, FIG. 17B; for transfection efficiency, result in words: compared with the controls
Procedure: (§1) Flow cytometry was used to determine in vitro cellular uptake and transfection efficacy in human Jurkat T cells. The cells were seeded in a 96-well plate at a density of 40,000 cells/well. Different formulations containing 100 ng of mRNA were added to each well and were incubated for 44 hours at 37° C. The cells were washed and centrifuged at 300×g. The supernatant was discarded. After the cells were diluted in PBS, flow cytometry analysis was performed to quantify the amounts of cellular uptake and transfection efficiency.
(§2) LNPs with different compositions were tested against Jurkat cells for both cellular uptake and mRNA transfection efficiencies, as depicted in FIGS. 17A and 17B respectively. Human Jurkat cells are representative T lymphocytes which are known to be difficult to transfect. The LNPs were tested for cellular uptake using Cy5-labeled eGFP mRNA. Cy5 fluorescent dye was used to determine the cellular uptake while eGFP fluorescence was used to determine the transfection efficiency of the mRNA encapsulated in the different LNP formulations. After 44-hour incubation, fluorescence was measured using a flow cytometer. In Jurkat cells, the cellular uptake was ˜36% for the positive control, SM-102 while the transfection efficiency was ˜91%.

[2] = system: human Jurkat T cells; test: In vitro cellular uptake of Cy5-labeled eGFP mRNA LNPs, flow cytometry; format: cell-based; settings: 44-hour incubation; for cellular uptake efficiency, result in words: compared with the controls
Procedure: as §1, §2

CCCCCCCCC(CCCCCC)COC(=O)CCCCCN(CCCCCC(=O)OCC(CCCCCC)CCCCCCCC)CCN(C)C (stereo not shown) [Control 2, 1,1′-bis(2-hexyldecyl) 6,6′-[[2-(dimethylamino)ethyl]imino]bis[hexanoate], reference compound]
transfection efficiency [1]: 80%

CCCCCCCCC(CCCCCC)COC(=O)CCCCCN(CCCCCC(=O)OCC(CCCCCC)CCCCCCCC)CCN(CCO)C1CCC1 (stereo not shown) [Lipid 1]
transfection efficiency [1]: 59%

CCCCCCCCC(CCCCCC)COC(=O)CCCCCN(CCCCCC(=O)OCC(CCCCCC)CCCCCCCC)CCN(CCN(C)C)C1CCC1 (stereo not shown) [Lipid 2, 2-hexyldecyl 6-[(2-{cyclobutyl[2-(dimethylamino)ethyl]amino}ethyl)({6-[(2-hexyldecyl)oxy]-6-oxohexyl})amino]hexanoate]
cellular uptake efficiency, result in words [2]: outperformed the controls | transfection efficiency [1]: 92% | transfection efficiency, result in words [1]: outperformed the controls

CCCCCCCCC(CCCCCC)COC(=O)CCCCCN(CCCCCC(=O)OCC(CCCCCC)CCCCCCCC)CCN(CCCN(C)C)C1CCC1 (stereo not shown) [Lipid 3, 2-hexyldecyl 6-[(2-{cyclobutyl[3-(dimethylamino)propyl]amino}ethyl)({6-[(2-hexyldecyl)oxy]-6-oxohexyl})amino]hexanoate]
cellular uptake efficiency, result in words [2]: outperformed the controls | transfection efficiency [1]: 78% | transfection efficiency, result in words [1]: outperformed the controls

CCCCCCCCCCCOC(=O)CCCCCN(CCO)CCCCCCCC(=O)OC(CCCCCCCC)CCCCCCCC [SM-102, reference compound]
cellular uptake ([2]; 100 ng mRNA per well, Cy5 fluorescence, FIG. 17A): ~36% | transfection efficiency [1]: ~91%
